According to patent US20220259164A1, “USE OF AMINOTHIOL COMPOUNDS AS CEREBRAL NERVE OR HEART PROTECTIVE AGENT” (SHANGHAI KECHOW PHARMA, INC., priority 2019, published 2022):
“And” between values parts separate entries of the source, which are not always exact repeats. Equal entries are not always repeated. Where a SMILES comes first, the peptide text is derived from it. [ ]: non-standard residue; d: D form. NMeC = CN[C@@H](CS)C(=O)O

How the values were obtained:
[1] = tested on: cisplatin-induced nephrotoxicity in SD rats; test: Cisplatin-induced nephrotoxicity in SD rats: blood creatinine and urea nitrogen; type: in vivo, rat; settings: for Effect on cisplatin-induced increase of blood creatinine and urea nitrogen (in words): 30 min prior to cisplatin 5 mg/kg i.p.: compound B 200 mg/kg i.p., compound A 800 mg/kg p.o., amifostine 200 mg/kg i.p., day 5; for Creatinine / Urea nitrogen: whole blood day 5, individual rats
Description: Healthy male SPF grade SD rats (body weight 250-300 g) were selected. Control group: PBS […] Cisplatin+compound B group: 5 mg/kg i.p.+compound B at 200 mg/kg i.p., with compound B being administered 30 min prior to cisplatin administration Cisplatin+amifostine group: 5 mg/kg i.p.+AMI at 200 mg/kg i.p., with AMI being administered 30 min prior to cisplatin administration Cisplatin+compound A group: 5 mg/kg i.p.+compound A at 800 mg/kg p.o., with compound A being administered 30 min prior to cisplatin administration (1) The SD rats used in the experiment were weighed, labeled, and evenly divided into 5 groups, with 3 SD rats in each group. (2) The compound B, compound A, and AMI groups were respectively administered at the planned concentrations. […] (3) The rats were weighed and recorded daily, and on day 5, blood was taken from the intraocular canthus of the SD rats and placed in an anticoagulant tube.

[2] = Body weight of cisplatin-induced SD rats; type: in vivo, rat; settings: 30 min prior to cisplatin 5 mg/kg i.p.: compound B 200 mg/kg i.p., compound A 800 mg/kg p.o., amifostine 200 mg/kg i.p.; weighed daily
Description: Healthy male SPF grade SD rats (body weight 250-300 g) were selected. Cisplatin+compound B group: 5 mg/kg i.p.+compound B at 200 mg/kg i.p., with compound B being administered 30 min prior to cisplatin administration Cisplatin+amifostine group: 5 mg/kg i.p.+AMI at 200 mg/kg i.p., with AMI being administered 30 min prior to cisplatin administration Cisplatin+compound A group: 5 mg/kg i.p.+compound A at 800 mg/kg p.o., with compound A being administered 30 min prior to cisplatin administration (1) The SD rats used in the experiment were weighed, labeled, and evenly divided into 5 groups, with 3 SD rats in each group. (2) The compound B, compound A, and AMI groups were respectively administered at the planned concentrations. […] (3) The rats were weighed and recorded daily, and on day 5, blood was taken from the intraocular canthus of the SD rats and placed in an anticoagulant tube.

[3] = tested on: radiation intestinal injury in C57 male mice; test: Protective effect on radiation intestinal injury (HE staining of small intestine); type: in vivo; settings: 517 mpk i.p. 30 min before 16 Gy abdominal irradiation; fifth day
Description: (§1) C57 male mice were randomly divided into 4 groups, namely a blank control group, an irradiation group, a compound B (TFA) irradiation group, and an AMI irradiation group, respectively. The mode of administration for each group was an intraperitoneal injection, 30 min before irradiation. The dosage of administration was 517 mpk, and the abdominal irradiation dose was 16 Gy. On the fifth day, the small intestine tissue was taken for HE staining.

[4] = tested on: radiation lung injury in C57 male mice; test: Protective effect on radiation lung injury (HE staining of lung); type: in vivo; settings: 517 mpk i.p. 30 min before 17 Gy right lung irradiation; months 2, 4, 6
Description: as §1, with “the” for “the abdominal”, “dose to the right lung” for “dose”, “17” for “16”, “[…] Lung tissues were taken at months 2, 4, and 6 for HE staining” for “staining.”

[5] = tested on: radiation-induced hematopoietic system injury in C57 male mice; test: Protective effect on radiation-induced hematopoietic system injury (peripheral blood indicators); type: in vivo; settings: 517 mpk i.p. 30 min before 4 Gy whole body irradiation; day 15
Description: C57 male mice were randomly divided into 6 groups, namely a blank control group, an irradiation group, a compound B (TFA) group, an AMI group, a compound B (TFA) irradiation group, and an AMI irradiation group, respectively. The mode of administration for each group was an intraperitoneal injection, 30 min before irradiation. The dosage of administration was 517 mpk, and the whole body irradiation dose was 4 Gy. On day 15, samples were taken for detecting peripheral blood indicators.

[6] = compound A (trifluoroacetate) 800 mg/kg p.o. 30 min prior to cisplatin 5 mg/kg i.p.
[7] = compound B (trifluoroacetate) 200 mg/kg i.p. 30 min prior to cisplatin 5 mg/kg i.p.

Row | SMILES | Effect on cisplatin-induced increase of blood creatinine and urea nitrogen (in words) [1] | Creatinine [1, 6] | Urea nitrogen [1, 6] | Change in body weight of cisplatin-induced SD rats [2] | Changes in the intestinal villi structure (HE staining) [3] | Creatinine [1, 7] | Urea nitrogen [1, 7] | Inflammatory cell infiltration / radiation pneumonitis in lung (HE staining) [4] | LY % and NE % in the peripheral blood (abnormal differentiation) [5] | Numbers of WBC, RBC and PLT in the peripheral blood [5]
1 | CNC(=O)[C@H](CS)NC(=O)[C@H](CS)NC [Compound A, (R)-3-mercapto-N—((R)-3-mercapto-1-(methylamino)-1-oxoprop-2-yl)-2-(methylamino)propionamide] (H-[NMeC]-Cys-NHMe) | significantly reduce the increased blood creatinine and urea nitrogen levels | 28.4 µmol/L and 18.1 µmol/L and 17.1 µmol/L | 7.68 mmol/L and 7.16 mmol/L and 10.21 mmol/L | the degree of decrease was significantly better than that of the cisplatin group | – | – | – | – | – | –
2 | CNC(=O)[C@H](CS)NC(=O)[C@H](CS)NC(=O)[C@H](CS)NC [Compound B, (R)-3-mercapto-N—((R)-3-mercapto-1-(((R)-3-mercapto-1-(methylamino)-1-oxoprop-2-yl)amino)-1-oxoprop-2-yl)-2-(methylamino)propionamide] (H-[NMeC]-Cys-Cys-NHMe) | significantly reduce the increased blood creatinine and urea nitrogen levels | – | – | the body weight increased rather than decrease | milder than that in the irradiation group | 18.1 µmol/L and 14.7 µmol/L and 30.4 µmol/L | 7.28 mmol/L and 5.71 mmol/L and 6.77 mmol/L | could partially relieve the inflammatory cell infiltration and reduce the occurrence of radiation pneumonitis | could alleviate this abnormal differentiation | could increase the numbers of such cells after irradiation
